Laboratory results as given in patent US6358736B1, “Method for increasing the antigen presenting ability of leukemia cells” (The United States of America as represented by the …, priority 1995, dated 2002).

Tests used:
[1] = tested on: B cell subpopulation within the PBMC; experiment: FACS analysis of B cell subpopulation in unfractionated PBMC; format: cell-based, human; settings: A23187 750 mg/ml, 40 hours
Protocol: (§1) PBMC were prepared by leukapheresis and Ficoll-Hypaque and placed in culture. Since the cells were never elutriated and no adherence step was performed, these cultures included large numbers of T, B, and NK lymphocytes as well as monocytes. The medium was our standard RPMI 10% human AB serum with antibiotics including amphotericin B. Cells were either untreated or treated for 40 hours with calcium ionophore A23187 […]. Cells were then harvested and analyzed by FACS. Cells were stained with FITC conjugated anti-CD3, anti-CD40, anti-CD57, anti-CD14, or the combination; in addition cells were stained with PE conjugated control antibodies, anti-B7.1, anti-B7.2, etc. In this way the effect of calcium ionophore treatment on each parameter could be clearly delineated.

WEHI-3 = experiment: Costimulatory molecule expression on mouse myeloid leukemia line; format: cell-based; settings: following calcium mobilization
Source text: Myeloid leukemia cell lines display marked upregulation of molecules linked to antigen-presentation and acquire increased T cell sensitizing capacity following calcium mobilization with either calcium ionophore or thapsigargin.

monocytes = experiment: Calcium-chelation luminescence spectrophotometry of intracellular calcium flux; format: cell-based, human; settings: indol-loaded monocytes; calcium ionophore 180-750 ng/ml
Protocol: Calcium-chelation luminescence spectrophotometry was utilized to measure intracellular calcium fluxes in monocytes. Monoytes were incubated with 5 uM/ml indol, a calcium chelating agent which emits fluorescence at different wavelengths (405 or 480 nm) depending on whether or not it is bound to cycloplasmic calcium. Increased calcium mobilization causes relative shifts in emission from one wavelength to the other. After 30 minute incubation with indol, monocytes were washed, pulsed with a variety of agents such as calcium ionophore, virus, f-MET-LEU-PHE, or LPS. To measure calcium fluxes at subsequent time intervals, cells were stimulated with a 355 nm wavelength beam, and fluorescence emission measured at 405 and 480 nm.

[2] = tested on: adherence-enriched monocytes; experiment: FACS analysis of monocytes enriched by Ficoll separation and adherence; format: cell-based, human; settings: A23187 750 ng/ml, 20 hours
Protocol: Blood was drawn in heparinized syringes (approximately 80 cc), diluted 1:1 with normal saline, layered on Ficoll-Hypaque, and centrifuged for 20 minutes to remove neutrophils and red blood cells. The peripheral blood mononuclear cell (PBMC) containing interface were washed, counted, and added to 24 well plates, 2 cc culture medium per well, 2×10^7 cells per well.
After 60 minutes the non adherent cells were removed, leaving a half confluent surface of adherent cells in each well (i.e., monocyte enrichment by adherence) Wells were either untreated or treated with calcium ionophore A23 187 750 ng/ml, and harvested 20 hours later.

[3] = tested on: human peripheral blood monocytes; experiment: FACS analysis of cell surface markers on cultured peripheral blood monocytes; format: cell-based
[4] = tested on: pooled monocyte plus dendritic cell elutriation fractions; experiment: FACS analysis of pooled 150-190 elutriation (APC) fractions after calcium ionophore activation; format: cell-based, human; settings: 500 ng A23187
Protocol: Two patients were hooked up to Fenwal™ CS-3000 leukapheresis apparatus' running a Procedure 8 modification software program. Patient #1 had been previously diagnosed with colon cancer, and Patient #2 was a normal control. The Fenwal™ apparatus was configured to isolate a sample of neutrophil-depleted, platelet-rich cells from each patients' peripheral blood. After 3-5 hours of leukaphereis, the isolated blood cells from each patient were quickly spun down in a centrifuge and then rinsed in citrate buffer to remove any excess plasma, tumor related proteins or calcium.
Following the citrate buffer rinse, the cells were resuspended in EDTA-free, Ca^++/Mg^++ HBSS. The isolated cells from each patient were then subject to elutriation on a Beckman™ JE-6B elutriation rotor. Once reaching a speed of 3000 rpm, 5×10^9 cells were elutriated by pressurized air at buffer flow rates of 120, 140, 150, 160, 170, 180, 190 and 200 cc/minute.
Each fraction from both patients were immediately placed on ice to prevent cell adherence to the plastic walls of the collection vials. We coulter counted each of the fractions and discarded the r/o fraction because it had greater than a 10% contamination of neutrophils. The 150, 160, 170, 180 and 190 cc/min fractions from Patient #1 and Patient #2 were pooled then subject to calcium ionophore. The pooled fractions from each patient were divided in half, with one half being activated by 500 ng of calcium ionophore A23187 (Sigma), and one half being inactivated. From our previous experiments, we expected that the calcium ionophore treated cells would have a much higher number of dendritic cells due to conversion of monocytes to DCs. Prior to FACS analysis, we activated Patient #1's pooled fractions by incubating both the untreated and calcium ionophore treated cells for 40 hours in the presence of an autologous tumor cell lysate (the patients own tumor cells). Similarly, we activated Patient #2's pooled fractions by incubating both the untreated and calcium ionophore treated cells in the presence of keyhole limpet hemocyanin (KLH) for 40 hours.
The vast majority of cells stained in the pooled fractions were expected to be CD14+(ie: monocytes). The horizontal (X) axis of the FACS plot illustrated staining for DR, B7.1 or B72 surface antigens.

[5] = tested on: bone marrow-derived CD34pos cells; experiment: FACS and morphologic analysis of cultured bone marrow-derived CD34pos cells; format: cell-based, human
Protocol: Bone marrow-derived highly purified CD34^pos cells were cultured for six days in medium containing 20% fetal calf serum, rhSCF, rhGM-CSF, and rhTNF-alpha. […] Cells were centrifuged and replated in 24 well plates in fresh medium containing rhGM-CSF, and rhTNF-alpha but not rhSCF. In addition, individual wells were treated with varied doses of ionophore A23187. Wells were harvested 1, 2, and 6 days subsequently, subjected to FACS analysis or studied morphologically for DC characteristics utilizing polylysine-coated glass slides and Nomarski optics.

[6] = tested on: T lymphocyte subpopulation within the PBMC; experiment: FACS analysis of T lymphocyte subpopulation in unfractionated PBMC; format: cell-based, human; settings: A23187 750 mg/ml, 40 hours
Protocol: as §1

HL-60 cells = experiment: FACS analysis of cell surface markers on HL-60 cells; format: cell-based, human; settings: optimal doses, within 20 hours
[7] = as E78, vs expression prior to culture
[8] = calcium-free RPMI and dialyzed serum
[9] = within 18 hours of treatment initiation
[10] = colon cancer patient, 40 hours with autologous tumor cell lysate
[11] = normal donor, 40 hours with KLH

CNc1ccc2oc(C[C@H]3O[C@@]4(CC[C@H]3C)O[C@H]([C@H](C)C(=O)c3ccc[nH]3)[C@H](C)C[C@H]4C)nc2c1C(=O)O [A23187]
B7.1 and B7.2 expression [1]: a subpopulation of B cells developed marked B71 and B72 expression | costimulatory molecule expression (WEHI-3): markedly increased costimulatory molecule expression | intracellular calcium flux / mobilization (monocytes): marked sustained monocyte mobilization | B7.1 and CD83 expression [2]: de novo B7.1 and CD83 expression | B7.2, HLA-DR and CD40 expression [2]: upregulated B72, HLA-DR, and CD40 expression | CD14 expression [2]: uniform CD14 downregulation | optimal concentration for DC differentiation of monocytes ([3]; 10% FCS): 180 to 375 ng/mL | CD14 expression downregulated ([3]; 20 hours, 10% AB serum, amphotericin B omitted, low endotoxin, A23187 750 ng/ml or cytokines (rhIL4 1000 u/ml; +rhGM-CSF 100 ng/ml; +rhTNF-alpha 100 u/ml)): 90% | surface marker expression in purified monocyte and DC cultures ([3]; A23187 750 ng/ml, 40 hours): upregulation of B7.1, B7.2, ICAM-1., HLA-DR, HLA-ABC, CD40, and CD83 | surface marker expression of purified (>98%) CD14pos monocytes vs prepurified fractions ([3]; A23187 750 ng/ml, 40 hours): downregulated CD14, and upregulated B7.1, B7.2, ICAM-1, HLA-DR, HLA-ABC, CD40 and CD83 equivalently | activation and dendritic cell phenotypic conversion of pooled monocyte plus DC fractions ([3]; added at the beginning of a 24-48 hr culture period): uniform activation and dendritic cell phenotypic conversion | B7.1 expression increase [3, 7]: 14 fold | B7.2 expression increase [3, 7]: 7.5 fold | CD83 expression increase [3, 7]: 8.7 fold | HLA-ABC expression increase [3, 7]: 3.0 fold | HLA-DQ expression increase [3, 7]: 3.4 fold | HLA-DR increase [3, 7]: 2.9 fold | suppression of ionophore-induced B7.1 upregulation [3, 8]: 100% | suppression of ionophore-induced CD14 downregulation [3, 8]: 53% | optimal concentration for DC differentiation of monocytes ([3]; media with 5% AB serum): 375 to 750 ng/mL | CD40 expression ([3]; more uniform by 40 hours of treatment): Modest upregulation of CD40 | optimal concentration for DC differentiation of monocytes ([3]; serum free media): 45 to 90 ng/mL | morphology by electron microscopy ([3]; within 20-40 hours of treatment): markedly increased endoplasmic reticulum, lysosomal and Golgi content | B7.1 (CD80) expression [3, 9]: Variable levels of de novo expression of B7.1 (CD80) | B7.2 (CD86) expression [3, 9]: marked upregulation of B7.2 (CD86) | CD83 expression [3, 9]: de novo and essentially uniform expression | cell surface CD14 expression [3, 9]: marked downregulation of cell surface CD14 | B7.1 expression [4, 10]: substantial but less uniform upregulation of B7.1 | HLA-DR and B7.2 expression [4, 10]: marked upregulation of HLA-DR and B7.2 | conversion of cells to cocktail negative (dendritic) phenotype [4, 10]: vast majority of cells were now converted to cocktail negative | HLA-DR, B7.1 and B7.2 expression [4, 11]: markedly upregulated for HLA-DR, B7.1 and B7.2 | conversion of cells to cocktail (CD3, CD14, CD20, CD56) negative (dendritic) phenotype [4, 11]: vast majority of these cells was now cocktail negative | increase in purity of cells with activated myeloid dendritic cell phenotype at final harvest [5]: approximately six | CD14 expression ([5]; 375-750 ng/ml, within 20 hours): marked CD14 downregulation | cells with marked upregulation of B7.1, B7.2, ICAM-1, CD83, CD40 and CD1a ([5]; 375-750 ng/ml, within 20 hours): > 85 % of cells | increase in yield of cells with activated myeloid dendritic cell phenotype vs wells without ionophore ([5]; absolute numbers of cells recovered): approximately three | optimal concentration for dendritic cell immunophenotype ([5]; within 20 hours of treatment): 375 to 750 ng/mL | morphology ([5]; within 40 hours of treatment): virtually all cells manifested dendritiform morphology | B7.2 upregulation over culture without ionophore [6]: 10 fold | CD40 upregulation [6]: 4 fold | HLA-DR upregulation [6]: 6 fold | ICAM-1 upregulation [6]: 3.3 fold | expression of CD83, ICAM-1, B7.1 and B7.2 (HL-60 cells): uniform de novo expression of CD83, ICAM-1, B7.1, and B7.2
